≈ marks a conversion by molar mass, not a printed value.
Legend:
[1] = system: BDF1 mouse splenocytes; assay: Suppression of the concanavalin A (Con A) mitogen reaction of mouse splenocytes, 3H-thymidine uptake; format: cell-based; parameters: Radioactivity cpm ± SD: dose or concentration left out as unconfirmed; conditions: for inhibition at 0.25 µg/mL: Mus musculus, Splenocyte, 48 h, Con A 5 μg/ml, compound 250.0 ng/ml
[2] = system: BDF1 mouse splenocytes; assay: Suppression of the lipopolysaccharide (LPS) reaction of mouse splenocytes, 3H-thymidine uptake; format: cell-based; conditions: for Radioactivity cpm ± SD / inhibition at 0.00098 µg/mL / inhibition at 0.00391 µg/mL / inhibition at 0.0156 µg/mL / inhibition at 0.0625 µg/mL / inhibition at 0.25 µg/mL: LPS 10 μg/ml; for Radioactivity cpm ± SD: 3H-thymidine; for inhibition at 0.00098 µg/mL / inhibition at 0.00391 µg/mL / inhibition at 0.0156 µg/mL / inhibition at 0.0625 µg/mL / inhibition at 0.25 µg/mL: Mus musculus, 48 h; for inhibition at 0.00098 µg/mL / inhibition at 0.00391 µg/mL / inhibition at 0.0156 µg/mL / inhibition at 0.0625 µg/mL / inhibition at 0.25 µg/mL / IC50: Splenocyte; for IC50: LPS reaction of mouse splenocytes; for Suppressive effect on the LPS reaction of mouse splenocytes (in words): depends on the compound concentration
Description: To each well of a 96 well microtiter plate were added 5×10^5 BDF1 mouse splenocytes suspended in 0.1 ml of 10% fetal calf serum-fortifed RPMI 1640 medium (2 mM of sodium bicarbonate, 50 units/ml of penicillin, 50 μg/ml of streptomycin and 5×10^-5 M of 2-mercaptethanol were added) were added. To each well, 5 μg/ml of Con A as a mitogen and the compound (I-1), (I-2) or (I-3) of a pre-determined concentration were added so that a final volume of each well reached 0.2 ml. […] The splenocytes in the 96 well microtiter plate were cultivated at 37° C. for 48 hours in an incubator keeping the humidity 100%, carbon dioxide 5% and air 95%. The cells were pulse-labeledwith 3H-thymidine (18.5 Kbq/well) before 6 hours of harvest. After the cultivation, the cells were collected by a cell harvester and radioactivity taken in the cells was measured for being used as an indicator of a cell proliferation activity. Con A-free (--Con A) medium was used as a control.
By the same method as described in above 1-1 except that lipopolysaccharide (LPS, 10 μg/ml) was used in spite of concanavalin A, a suppression of the reaction was examined. LPS-free (--LPS) medium was used as a control.

[3] = Solubility (characterisation data); format: physicochemical
[4] = system: BDF1 mouse splenocytes; assay: Suppression of the concanavalin A (Con A) mitogen reaction of mouse splenocytes, 3H-thymidine uptake; format: cell-based; conditions: for Radioactivity cpm ± SD / inhibition at 0.00025 µg/mL / inhibition at 0.00098 µg/mL / inhibition at 0.00391 µg/mL / inhibition at 0.0156 µg/mL / inhibition at 0.0625 µg/mL: Con A 5 μg/ml, 48 h; for Radioactivity cpm ± SD: 3H-thymidine; for inhibition at 0.00025 µg/mL / inhibition at 0.00098 µg/mL / inhibition at 0.00391 µg/mL / inhibition at 0.0156 µg/mL / inhibition at 0.0625 µg/mL: Mus musculus; for inhibition at 0.00025 µg/mL / inhibition at 0.00098 µg/mL / inhibition at 0.00391 µg/mL / inhibition at 0.0156 µg/mL / inhibition at 0.0625 µg/mL / IC50: Splenocyte; for IC50: Con A reaction of mouse splenocytes; for Suppression of the Con A reaction of mouse splenocytes (in words): depending on the compound concentration
Description: To each well of a 96 well microtiter plate were added 5×10^5 BDF1 mouse splenocytes suspended in 0.1 ml of 10% fetal calf serum-fortifed RPMI 1640 medium (2 mM of sodium bicarbonate, 50 units/ml of penicillin, 50 μg/ml of streptomycin and 5×10^-5 M of 2-mercaptethanol were added) were added. To each well, 5 μg/ml of Con A as a mitogen and the compound (I-1), (I-2) or (I-3) of a pre-determined concentration were added so that a final volume of each well reached 0.2 ml. Each compound of the present invention was dissolved in dimethylsulfoxide (DMSO) and diluted with the above RPMI 1640 medium to adjust the final concentration to 100 ng/ml or less. The splenocytes in the 96 well microtiter plate were cultivated at 37° C. for 48 hours in an incubator keeping the humidity 100%, carbon dioxide 5% and air 95%. The cells were pulse-labeledwith 3H-thymidine (18.5 Kbq/well) before 6 hours of harvest. After the cultivation, the cells were collected by a cell harvester and radioactivity taken in the cells was measured for being used as an indicator of a cell proliferation activity. Con A-free (--Con A) medium was used as a control.

| SMILES | Radioactivity cpm ± SD [1] [cpm] | inhibition at 0.25 µg/mL [1] [%] | Radioactivity cpm ± SD ([2]; compound 0.98 ng/ml) [cpm] | Radioactivity cpm ± SD ([2]; compound 3.91 ng/ml) [cpm] | Radioactivity cpm ± SD ([2]; compound 15.6 ng/ml) [cpm] | Radioactivity cpm ± SD ([2]; compound 62.5 ng/ml) [cpm] | Radioactivity cpm ± SD ([2]; compound 250.0 ng/ml) [cpm] | inhibition at 0.00098 µg/mL ([2]; compound 0.98 ng/ml) [%] | inhibition at 0.00391 µg/mL ([2]; compound 3.91 ng/ml) [%] | inhibition at 0.0156 µg/mL ([2]; compound 15.6 ng/ml) [%] | inhibition at 0.0625 µg/mL ([2]; compound 62.5 ng/ml) [%] | inhibition at 0.25 µg/mL ([2]; compound 250.0 ng/ml) [%] | IC50 [2] [ng/mL] | Suppressive effect on the LPS reaction of mouse splenocytes (in words) [2] | Solubility in acetone, ethyl acetate and chloroform [3] | Solubility in water [3] | Radioactivity cpm ± SD ([4]; compound 0.25 ng/ml) [cpm] | Radioactivity cpm ± SD ([4]; compound 0.98 ng/ml) [cpm] | Radioactivity cpm ± SD ([4]; compound 3.91 ng/ml) [cpm] | Radioactivity cpm ± SD ([4]; compound 15.6 ng/ml) [cpm] | also measured |
| --- | --- | --- | --- | --- | --- | --- | --- | --- | --- | --- | --- | --- | --- | --- | --- | --- | --- | --- | --- | --- | --- |
| COc1cc(-c2ccccc2)c(OC)c(O)c1-c1ccc(OCC=C(C)C)c(O)c1 [Compound I-2, 3',6'-dimethoxy-4-(3-methyl-2-butenyloxy)-[1,1';4',1"] terphenyl-3,2'-diol] | 8233 ± 254 | 98.2 | 208023 ± 8941 | 132834 ± 5106 | 78686 ± 4135 | 39824 ± 651 | 22312 ± 1122 | -35.9 | 13.9 | 49.8 | 75.6 | 87.2 | 15.6 (≈ 0.0384 µM) | potent suppressive effect | soluble | insoluble | 281904 ± 6522 | 281371 ± 10119 | 191575 ± 6969 | 41660 ± 531 | Radioactivity cpm ± SD ([4]; compound 62.5 ng/ml): 11793 ± 235 cpm; inhibition at 0.00025 µg/mL ([4]; compound 0.25 ng/ml): -1.8%; inhibition at 0.00098 µg/mL ([4]; compound 0.98 ng/ml): -1.6%; inhibition at 0.00391 µg/mL ([4]; compound 3.91 ng/ml): 30.9%; inhibition at 0.0156 µg/mL ([4]; compound 15.6 ng/ml): 86%; inhibition at 0.0625 µg/mL ([4]; compound 62.5 ng/ml): 96.9%; IC50 [4]: 5.6 ng/mL (≈ 0.0138 µM); Suppression of the Con A reaction of mouse splenocytes (in words) [4]: significantly suppressed |
| COc1cc(-c2c(OC)cc(-c3ccc(O)cc3)c(OC)c2O)ccc1OCC=C(C)C [Compound I-3, 3,3',6'-trimethoxy-4-(3-methyl-2-butenyloxy)-[1,1';4',1"] terphenyl-2',4"-diol] | 7522 ± 485 | 98.5 | 184366 ± 10625 | 128436 ± 4167 | 46765 ± 2209 | 22961 ± 1187 | 14962 ± 866 | -20.2 | 16.8 | 71 | 86.7 | 92 | 8 (≈ 0.0183 µM) | potent suppressive effect | soluble | insoluble | 285408 ± 7252 | 266173 ± 6208 | 101504 ± 1326 | 20510 ± 287 | Radioactivity cpm ± SD ([4]; compound 62.5 ng/ml): 7755 ± 624 cpm; inhibition at 0.00025 µg/mL ([4]; compound 0.25 ng/ml): -3.1%; inhibition at 0.00098 µg/mL ([4]; compound 0.98 ng/ml): 4%; inhibition at 0.00391 µg/mL ([4]; compound 3.91 ng/ml): 64.2%; inhibition at 0.0156 µg/mL ([4]; compound 15.6 ng/ml): 93.8%; inhibition at 0.0625 µg/mL ([4]; compound 62.5 ng/ml): 98.4%; IC50 [4]: 2 ng/mL (≈ 0.00458 µM); Suppression of the Con A reaction of mouse splenocytes (in words) [4]: significantly suppressed |

Reference: patent publication US6291231A, “Microorganism producing terphenyl compounds” (Shionogi & Co., Ltd., priority 1996, dated 2001)
